Laboratory results published in patent US20070270418A1, “Inhibitors of P38 and Methods of Using the Same” (priority 2003, published 2007).
Like-named read-outs stand apart in the source and are kept apart here.

Assays:
[1] = system: TNFα release from THP-1 cells; experiment: TNFα release from LPS-stimulated THP-1 cells; type: cell-based
Description: Compounds of the invention are screened for the ability to inhibit TNFα and IL-1β release from THP-1 cells stimulated with lipopolysaccharide (LPS) in vitro. The ability of compounds to inhibit TNFα and IL-1β release in this in vitro assay is correlated with the inhibition of p38 activity and TNFα and IL-1β expression in vivo, and is therefore an indicator of potential in vivo therapeutic activity (Lee J. C. et al, Ann. N.Y. Acad. Sci. 696: 149-170, 1993 and Nature, 372: 739-746, 1994).
THP-1 cells from ATCC (TIB202) are maintained at 37° C., 5% CO2 in RPMI 1640 media (MediaTech, Herndon, Va.) containing 4.5 g/L glucose, supplemented with 10% fetal bovine serum, 1% penicillin/streptomycin and 50 μM β-mercaptoethanol.
Test compounds are initially dissolved in RPMI media with 1% DMSO (v/v). Compounds are then serially diluted in RPMI media for all subsequent dilutions. The assay is performed under sterile conditions. THP-1 cells at a culture density of 6-8×10^5 cells/ml are collected and resuspended in the RPMI media at 10^6 cells/ml. 100 μl of resuspended cells are added to each well, which contain 100 μl of a test compound. Test compounds are prepared at twice the final concentration. Final DMSO concentration is no more than 0.5% (v/v). Cells are preincubated with compound for 30 minutes at 37° C., 5% CO2 prior to stimulation with lipopolysaccharide (LPS) (Sigma L-2880, 4 mg/ml stock in PBS). The final LPS concentration in each well is 10 or 30 μg/ml for TNFα and IL-1β release, respectively. Unstimulated control cell suspensions receive PBS vehicle only. Cell mixtures are incubated for 18 or 48 hours for TNFα and IL-1β release, respectively. 150 μl of supernatants are taken and transferred to a fresh plate and stored at −20° C. until further analysis.

p38α = target: T1, p38α (Homo sapiens, UniProt Q16539); experiment: p38 MAP Kinase assay, ATF2 phosphorylation (ELISA); type: biochemical; settings: 40 μM ATP
T1 construct: p38 MAP Kinases are recombinant human full-length proteins with an amino-terminal GST fusion; GST (N); purchased Upstate (Charlottesville, Va.); host or cells: E. coli
Description: Compounds of the invention are screened for the ability to inhibit ATF2 phosphorylation by p38 MAP Kinase in vitro. The ability of compounds to inhibit ATF2 phosphorylation in this in vitro assay is correlated with the inhibition of p38 MAP Kinase and TNFα expression in vivo, and is therefore an indicator of potential in vivo therapeutic activity (Raingeaud, J., et al, J. Biol. Chem., 270: 7420-7426, 1995, Brinkman, M. N., et al, J. Bil. Chem. 274: 30882-30886, 1999 and Fuchs, S. Y. et al, J. Biol. Chem. 275: 12560-12564, 2000).
All kinases and the substrate ATF2 are acquired from Upstate (Charlottesville, Va.). p38 MAP Kinases are recombinant human full-length proteins with an amino-terminal GST fusion, expressed in and purified from E. coli. ATF2 is a GST fusion protein containing amino acids 19-96 of human ATF2 expressed in E. coli. All proteins were aliquoted and stored at −80° C.
p38 MAP Kinase assays are performed using an assay buffer containing 25 mM HEPES, pH 7.5, 10 mM MgCl2, 2 mM DTT, 20 mM β-glycerophosphate, 0.1 mM Na3VO4, 40 μM ATP and 1.25 μM of ATF2, together with 6 ng of p38α protein, 12 ng p38β protein, 1.5 ng p38γ, or 0.4 ng JNK2α2. Compounds are serially diluted in DMSO and 2 μL of test compound at 25× final concentration is used. The vehicle control receives DMSO only. Test compounds are pre-incubated with 20 μl of enzyme in kinase buffer (25 mM HEPES, pH 7.5, 10 mM MgCl2, 2 mM DTT, 20 mM 3-glycerophosphate and 0.1 mM Na3VO4) at room temperature for 15 minutes. […] The reactions are incubated for 30 minutes at 37° C. and terminated by the addition of 18 μl of 200 mM EDTA. An ELISA method is used to measure the phosphorylation of ATF2 at Thr 69. High binding 96-well plates (Corning 3369) are coated with 50 μl of kinase reaction for 1 hour at 37° C. The coated plates are washed with 200 μl washing buffer (25 mM Tris HCl, pH 8.3, 192 mM glycine, 0.1% SDS and 0.05% Tween-20) three times. The plates are then washed three times with SuperBlock in TBS (Pierce, 37535). After blocking, plates are incubated with 50 μl of rabbit anti-phospho-ATF2 antibody (Cell Signaling, 9221 L, 1:500) for 30 minutes at 37° C. Plates are washed three times with washing buffer prior to incubation with 50 μl HRP-conjugated goat anti-rabbit antibody (Cell Signaling, 7074, 1:500) for 30 minutes at 37° C. Plates are then washed three times with washing buffer before incubation with 50 μl of Ultra TMB-ELISA (Pierce, 34028) for 8 minutes at room temperature. Finally, 50 μl of phosphoric acid (1 M) is added to stop reactions and plate absorbance is read at 450 nm on a SpectraMax 250 plate reader.

[2] = Homo sapiens, THP-1, 18 h, read-out: TNFα (THP-1) IC50 (nM)
[3] = Homo sapiens, THP-1, 18 h, LPS 10 μg/ml, 18 hours, read-out: TNFα (THP-1) IC50
[4] = LPS 10 μg/ml, 18 hours, read-out: TNFα (THP-1) IC50

T1 sequence (Q16539 whole entry, the tested form may be a part): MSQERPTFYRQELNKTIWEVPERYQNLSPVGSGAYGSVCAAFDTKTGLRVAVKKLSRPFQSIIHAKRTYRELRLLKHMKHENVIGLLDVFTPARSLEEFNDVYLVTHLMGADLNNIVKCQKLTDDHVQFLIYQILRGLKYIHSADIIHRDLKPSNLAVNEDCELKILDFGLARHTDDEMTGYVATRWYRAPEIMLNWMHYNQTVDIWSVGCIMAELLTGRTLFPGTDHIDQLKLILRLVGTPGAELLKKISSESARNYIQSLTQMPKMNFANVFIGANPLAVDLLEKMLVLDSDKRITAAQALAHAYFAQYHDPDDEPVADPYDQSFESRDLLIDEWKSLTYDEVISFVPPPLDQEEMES

| IC50 (p38α) | IC50 [1, 3] | IC50 [1, 4] | SMILES | IC50 [1, 2] |
| --- | --- | --- | --- | --- |
| 1.3 nM | 6.5 nM |  | CC(=O)N1CCC(Nc2nccc(-c3c(-c4ccc(F)cc4Cl)nc4occn34)n2)CC1 [CCCIX] |  |
| 2.3 nM | 38.5 nM |  | CC(=O)N1CCC(Nc2nccc(-c3c(-c4ccccc4Cl)nc4occn34)n2)CC1 [CCCI] |  |
| 10 nM | 24 nM |  | Cc1ccccc1-c1nc2occn2c1-c1ccnc(NC2CCNCC2)n1 [CCCVIII] |  |
| 43.3 nM | 136 nM |  | CN(C)CC(C)(C)CNc1nccc(-c2c(-c3cccc(C(F)(F)F)c3)nc3occn23)n1 [CCCVII] |  |
| 4.9 nM | 82.6 nM |  | CC(=O)N1CCC(Nc2nccc(-c3c(-c4cccc(C(F)(F)F)c4)nc4occn34)n2)CC1 [CCCVI] |  |
| 4.8 nM | 41 nM |  | CC(=O)N1CCC(Nc2nccc(-c3c(-c4ccccc4C)nc4occn34)n2)CC1 [CCCV] |  |
| 21.2 nM | 111 nM |  | FC(F)(F)c1cccc(-c2nc3occn3c2-c2ccnc(NC3CCNCC3)n2)c1 [CCCXIII] |  |
| 14.5 nM | 24.6 nM |  | Clc1ccccc1-c1nc2occn2c1-c1ccnc(NC2CCNCC2)n1 [CCCXIV] |  |
| 0.3 nM | 17.7 nM |  | CS(=O)(=O)N1CCC(Nc2nccc(-c3c(-c4ccc(F)cc4Cl)nc4occn34)n2)CC1 [CCCXIX] |  |
| 18 nM | 611 nM |  | CC(C)(C)OC(=O)N1CCC(Nc2nccc(-c3c(-c4cccc(C(F)(F)F)c4)nc4occn34)n2)CC1 [CCCXI] |  |
| 1 nM | 18.2 nM |  | CS(=O)(=O)N1CCC(Nc2nccc(-c3c(-c4ccccc4Cl)nc4occn34)n2)CC1 [CCCXVIII] |  |
| 3 nM | 13.7 nM |  | CC(=O)N1CCC(Nc2nccc(-c3c(-c4ccc(F)cc4F)nc4occn34)n2)CC1 [CCCXVII] |  |
| 0.9 nM | 33.7 nM |  | CS(=O)(=O)N1CCC(Nc2nccc(-c3c(-c4cccc(C(F)(F)F)c4)nc4occn34)n2)CC1 [CCCXVI] |  |
| 26 nM | 55.9 nM |  | CC(C)[C@@H](CO)Nc1nccc(-c2c(-c3cccc(F)c3)nc3sccn23)n1 [CCIX] |  |
| 75.7 nM | 101 nM |  | CC(C)[C@@H](CO)Nc1nccc(-c2c(-c3ccc(Br)cc3)nc3sccn23)n1 [CCI] |  |
| 1.65 nM | 6.27 nM |  | CC(=O)N1CCC(Nc2nccc(-c3c(-c4ccc(F)cc4)nc4sccn34)n2)CC1 [CCLIII] |  |
| 2.02 nM | 21.9 nM |  | O=C(c1ccc(F)cc1)N1CCC(Nc2nccc(-c3c(-c4ccc(F)cc4)nc4sccn34)n2)CC1 [CCLII] |  |
| 30.2 nM | 345 nM |  | Fc1ccc(CN2CCC(Nc3nccc(-c4c(-c5ccc(F)cc5)nc5sccn45)n3)CC2)cc1 [CCLIV] |  |
| 22.2 nM | 47.7 nM |  | C[C@@H](Nc1nccc(-c2c(-c3ccc(F)cc3)nc3sccn23)n1)C(N)=O [CCLIX] |  |
| 14.3 nM | 84.9 nM |  | OC(CNc1nccc(-c2c(-c3ccc(F)cc3)nc3sccn23)n1)COc1ccccc1 (stereo not drawn) [CCLI] |  |

| IC50 (p38α) | IC50 [1, 3] | IC50 [1, 4] | SMILES | IC50 [1, 2] |
| --- | --- | --- | --- | --- |
| 57.7 nM | 643 nM |  | Fc1ccc(-c2nc3sccn3c2-c2ccnc(NCCN3CCN(Cc4ccccc4)CC3)n2)cc1 [CCLVIII] |  |
| 25.4 nM | 38.6 nM |  | CC(CN(C)C)Nc1nccc(-c2c(-c3ccc(F)cc3)nc3sccn23)n1 (stereo not drawn) [CCLVII] |  |
| 1.07 nM | 9.68 nM |  | O=C(Nc1ccc(F)cc1)N1CCC(Nc2nccc(-c3c(-c4ccc(F)cc4)nc4sccn34)n2)CC1 [CCLVI] |  |
| 2.12 nM | 10.8 nM |  | CCNC(=O)N1CCC(Nc2nccc(-c3c(-c4ccc(F)cc4)nc4sccn34)n2)CC1 [CCLV] |  |
| 5.85 nM | 23.3 nM |  | CC(C)(CNC(=O)OC(C)(C)C)CNc1nccc(-c2c(-c3ccc(F)cc3)nc3sccn23)n1 [CCLXIII] |  |
| 29.8 nM | 196 nM |  | CC(C)(C)OC(=O)N1CCCC(Nc2nccc(-c3c(-c4ccc(F)cc4)nc4sccn34)n2)C1 (stereo not drawn) [CCLXII] |  |
| 7.26 nM | 27.5 nM |  | CC(C)(C)OC(=O)N1CCCC1CNc1nccc(-c2c(-c3ccc(F)cc3)nc3sccn23)n1 (stereo not drawn) [CCLXIV] |  |
| 1.31 nM | 3.08 nM |  | CS(=O)(=O)N1CCC(Nc2nccc(-c3c(-c4ccc(F)cc4)nc4sccn34)n2)CC1 [CCLXI] |  |
| 75.7 nM |  | 100 nM | CC(C)[C@@H](CO)Nc1nccc(-c2c(-c3ccc(Br)cc3)nc3sccn23)n1 [CCLXXI] |  |
| 147 nM |  | 58.7 nM | Cc1ccc(-c2nc3sccn3c2-c2ccnc(N[C@H](CO)C(C)C)n2)cc1 [CCLXXVII] |  |
|  | > 10000 nM |  | COc1cccc(-c2nc3sccn3c2-c2nc(SC)ncc2-c2ccccc2)c1 [CCXXXIV] |  |
| 650 nM |  |  | CN1CCCC1CCNc1nccc(-c2c(-c3ccc(F)cc3)nc3occn23)n1 (stereo not drawn) [LXI] |  |
| 664 nM |  |  | Cc1csc(Nc2nccc(-c3c(-c4ccc(F)cc4)nc4occn34)n2)n1 [LXXII] |  |
| 529 nM |  |  | CSc1nc(Nc2nccc(-c3c(-c4ccc(F)cc4)nc4occn34)n2)n[nH]1 [LXXVII] |  |
| 3330 nM |  |  | CNCCNc1nccc(-c2c(-c3ccc(F)cc3)nc3occn23)n1 [XCII] |  |
| 969 nM |  |  | CN(CCO)c1nccc(-c2c(-c3ccc(F)cc3)nc3occn23)n1 [XCVI] |  |
| 866 nM |  |  | NC1CCN(c2nccc(-c3c(-c4ccc(F)cc4)nc4occn34)n2)CC1 [XC] |  |
| 4430 nM |  |  | CS(=O)(=O)c1nccc(-c2c(-c3ccc(F)cc3)nc3occn23)n1 [XI, 6-(4-fluorophenyl)-5-[2-(methylsulfonyl)pyrimidin-4-yl]imidazo[2,1-b][1,3]oxazole] |  |
| 13 nM |  |  | OCC(CO)Nc1nccc(-c2c(-c3ccc(F)cc3)nc3occn23)n1 [XIII] |  |

| SMILES | IC50 (p38α) | IC50 [1, 3] | IC50 [1, 4] | IC50 [1, 2] |
| --- | --- | --- | --- | --- |
| Clc1ccccc1-c1nc2occn2c1-c1ccnc(N[C@H]2CN3CCC2CC3)n1 [CCCIII] | 12.5 nM |  |  | 9 nM |
| Cc1ccccc1-c1nc2occn2c1-c1ccnc(N[C@H]2CN3CCC2CC3)n1 [CCCII] | 13.8 nM |  |  | 5.5 nM |
| Fc1ccc(-c2nc3occn3c2-c2ccnc(N[C@H]3CN4CCC3CC4)n2)c(F)c1 [CCCIV] | 3.8 nM |  |  | 1.7 nM |
| CN1[C@@H]2CC[C@H]1C[C@@H](Nc1nccc(-c3c(-c4ccc(F)cc4F)nc4occn34)n1)C2 [CCCXII] | 2.6 nM |  |  | 1.2 nM |
| Cc1ccccc1-c1nc2occn2c1-c1ccnc(NC2C[C@H]3CC[C@@H](C2)N3C)n1 (stereo partly drawn) [CCCXX] | 13.9 nM |  |  | 23.7 nM |
| CN1[C@@H]2CC[C@H]1C[C@@H](Nc1nccc(-c3c(-c4cccc(C(F)(F)F)c4)nc4occn34)n1)C2 [CCCX] | 9.3 nM | 47.9 nM |  |  |
